# Like-named read-outs stand apart in the source and are kept apart here.
# Tests used:
# [1] = amide bond, 24-membered ring, THF/DMF
# fowl roundworms = experiment: Fowl Roundworm Eliminating Test; format: in vivo; settings: infected fowls, worms counted to day 7
# Experimental: Test 1 Fowl Roundworm Eliminating Test Fowls (three fowls per group), which had been artificially infected with fowl roundworms and whose infection therewith had been confirmed by scatoscopy, were used as experimental animals. Upon administration of each test substance, the test substance weighed in a dose (mg) accurately calculated on the basis of the body weight (kg) of each fowl was suspended in carboxymethylcellulose-containing water, and the resulting suspension was administered orally as a single dose unit using a stomach tube. After the administration, the worms eliminated from the fowls were counted daily. Seven days after the administration, the fowl was sacrificed and autopsied and the worms remaining in its intestinal tract were counted. The percent elimination was calculated in accordance with the following calculation equation: [formula] Each test substance is indicated by the corresponding substance code name shown above in Table 1.
# [2] = tested on: Nippostrongylus brasillensis; experiment: Anthelmintic effects on a rat intestinal nematode (N. brasillensis-infected rats); format: in vivo; settings: male Wistar rats; for Number of remaining worms (average value ± SD): 10 mg/kg p.o. 7 days after inoculation, autopsy 10 days after inoculation; for % Effectiveness: 10 mg/kg p.o., compared with infected control group
# Experimental: Anthelmintic effects of certain PF1022 derivatives on a rat intestinal nematode were tested in accordance with the following method.
# Sixteen male Wistar rats were divided into eight groups (two rats per group), and about 2,000 larval worms of Nippostrongylus brasillensis were hypodermically inoculated per rat. Seven days after the inoculation, PF1022, PF1022E, PF1022-002, PF1022-003, PF1022-209, PF1022-218 and PF1022-219 were, as test substances, forcedly administered p.o. to the rats in the groups, respectively, in an amount of 10 mg/kg per rat. Upon administration, each test substance (8 mg) was dissolved in 0.2 ml of dimethyl sulfoxide and then, the resultant solution was diluted with distilled water to give a 2 ml suspension. Ten days after the inoculation,the rats were each subjected to autopsy and imaginal worms parasitic on the small intestines were counted.
# As the test results, the average of remaining worms in each of the eight groups and the percent effectiveness of the test substance in each group as compared with that of the infected control group are shown in Table 4.
compound,measurement,setting,value
CCCCCC[C@H]1OC(=O)[C@H](CC(C)C)N(C)C(=O)[C@@H](C)OC(=O)[C@H](CC(C)C)N(C)C(=O)[C@@H](Cc2ccccc2)OC(=O)[C@H](CC(C)C)N(C)C(=O)[C@@H](C)OC(=O)[C@H](CC(C)C)N(C)C1=O,"ring closure, isolated yield","[1]; from H-MeLeu-dOctA-MeLeu-dLac-MeLeu-dPhLac-MeLeu-dLac-OH, EDCI.HCl/HOBt/NMM/LiCl/NaCl/KCl/CsCl, 0.95 mM",24.7%
CCCC[C@H]1OC(=O)[C@H](CC(C)C)N(C)C(=O)[C@@H](Cc2ccccc2)OC(=O)[C@H](CC(C)C)N(C)C(=O)[C@@H](C)OC(=O)[C@H](CC(C)C)N(C)C(=O)[C@@H](Cc2ccccc2)OC(=O)[C@H](CC(C)C)N(C)C1=O,"ring closure, isolated yield","[1]; from H-MeLeu-dLac-MeLeu-dPhLac-MeLeu-dnorLEUA-MeLeu-dPhLac-OH, EDCI.HCl/HOBt/NMM/LiCl/NaCl/KCl/CsCl, 0.76 mM",82%
CC(C)C[C@@H]1NC(=O)[C@@H](C)OC(=O)[C@H](CC(C)C)N(C)C(=O)[C@@H](Cc2ccccc2)OC(=O)[C@H](CC(C)C)NC(=O)[C@@H](C)OC(=O)[C@H](CC(C)C)N(C)C(=O)[C@@H](Cc2ccccc2)OC1=O [Cyclo-(L-MeLeu-D-Lac-L-Leu-D-PhLac)2],"ring closure, isolated yield","[1]; from H-MeLeu-dLac-Leu-dPhLac-MeLeu-dLac-Leu-dPhLac-OH, EDCI.HCl/HOBt/NMM, LiCl/KCl/NaCl/CsCl, 0.96 mM, 25.0 °C, 3 steps",55.8%
CCCCCC[C@H]1OC(=O)[C@H](CC(C)C)N(C)C(=O)[C@@H](C)OC(=O)[C@H](CC(C)C)N(C)C(=O)[C@@H](CCCCCC)OC(=O)[C@H](CC(C)C)N(C)C(=O)[C@@H](C)OC(=O)[C@H](CC(C)C)N(C)C1=O [Cyclo-(L-MeLeu-D-OctA-L-MeLeu-D-Lac)2],"ring closure, isolated yield","[1]; from H-MeLeu-dOctA-MeLeu-dLac-MeLeu-dOctA-MeLeu-dLac-OH, EDCI.HCl/HOBt/NMM/LiCl/NaCl/KCl/CsCl, 0.81 mM",92%
CC(C)C[C@@H]1NC(=O)[C@@H](Cc2ccccc2)OC(=O)[C@H](CC(C)C)N(C)C(=O)[C@@H](C)OC(=O)[C@H](CC(C)C)NC(=O)[C@@H](Cc2ccccc2)OC(=O)[C@H](CC(C)C)N(C)C(=O)[C@@H](C)OC1=O [Cyclo-(L-MeLeu-D-PhLac-L-Leu-D-Lac)2],"ring closure, isolated yield","[1]; from H-MeLeu-dPhLac-Leu-dLac-MeLeu-dPhLac-Leu-dLac-OH, EDCI.HCl/HOBt/NMM, LiCl/KCl/NaCl/CsCl, 0.96 mM, 25.0 °C, 3 steps",62%
CC(C)C[C@H]1C(=O)O[C@H](C(C)C)C(=O)N(C)[C@@H](CC(C)C)C(=O)O[C@H](C)C(=O)N(C)[C@@H](CC(C)C)C(=O)O[C@H](C(C)C)C(=O)N(C)[C@@H](CC(C)C)C(=O)O[C@H](C)C(=O)N1C [Cyclo-(L-MeLeu-D-VALA-L-MeLeu-D-Lac)2],"ring closure, isolated yield","[1]; from H-MeLeu-dVALA-MeLeu-dLac-MeLeu-dVALA-MeLeu-dLac-OH, EDCI.HCl/HOBt/NMM/LiCl/NaCl/KCl/CsCl, 0.88 mM",92%
CC[C@@H](C)[C@H]1OC(=O)[C@H](CC(C)C)N(C)C(=O)[C@@H](Cc2ccccc2)OC(=O)[C@H](CC(C)C)N(C)C(=O)[C@@H]([C@H](C)CC)OC(=O)[C@H](CC(C)C)N(C)C(=O)[C@@H](Cc2ccccc2)OC(=O)[C@H](CC(C)C)N(C)C1=O [Cyclo-(L-MeLeu-D-isoLEUA-L-MeLeu-D-PhLac)2],"ring closure, isolated yield","[1]; from H-MeLeu-disoLEUA-MeLeu-dPhLac-MeLeu-disoLEUA-MeLeu-dPhLac-OH, EDCI.HCl/HOBt/NMM/LiCl/NaCl/KCl/CsCl, 0.87 mM, 3 steps",29%
CCCC[C@H]1OC(=O)[C@H](CC(C)C)N(C)C(=O)[C@@H](Cc2ccccc2)OC(=O)[C@H](CC(C)C)N(C)C(=O)[C@@H](CCCC)OC(=O)[C@H](CC(C)C)N(C)C(=O)[C@@H](Cc2ccccc2)OC(=O)[C@H](CC(C)C)N(C)C1=O [Cyclo-(L-MeLeu-D-norLEUA-L-MeLeu-D-PhLac)2],"ring closure, isolated yield","[1]; from H-MeLeu-dnorLEUA-MeLeu-dPhLac-MeLeu-dnorLEUA-MeLeu-dPhLac-OH, EDCI.HCl/HOBt/NMM/LiCl/NaCl/KCl/CsCl, 0.82 mM, 3 steps",35.8%
CC(C)C[C@H]1C(=O)O[C@H](Cc2ccc(O)cc2)C(=O)N(C)[C@@H](CC(C)C)C(=O)O[C@H](C)C(=O)N(C)[C@@H](CC(C)C)C(=O)O[C@H](Cc2ccccc2)C(=O)N(C)[C@@H](CC(C)C)C(=O)O[C@H](C)C(=O)N1C [H-MeLeu-dLac-MeLeu-dTYRA-MeLeu-dLac-MeLeu-dPhLac-OH],"ring closure, isolated yield","[1]; from H-MeLeu-dLac-MeLeu-dTYRA-MeLeu-dLac-MeLeu-dPhLac-OH, EDCI.HCl/HOBt/NMM/LiCl/KCl/NaCl/CsCl, 0.89 mM",33%
"CC(C)C[C@H]1C(=O)O[C@H](Cc2ccc(O)cc2)C(=O)N(C)[C@@H](CC(C)C)C(=O)O[C@H](C)C(=O)N(C)[C@@H](CC(C)C)C(=O)O[C@H](Cc2ccccc2)C(=O)N(C)[C@@H](CC(C)C)C(=O)O[C@H](C)C(=O)N1C [PF1022 E, cyclo-(-L-Meleu-D-Lac-L-MeLeu-D-TYRA-L-MeLeu-D-Lac-L-MeLeu-D-PhLac)]",% Elimination,fowl roundworms; single oral dose 0.5 mg/kg,70%
same,Number of remaining worms (average value ± SD),[2],2175 ± 134.4
same,% Effectiveness,[2],0%
"CC(C)CC1C(=O)OC(C)C(=O)N(C)C(CC(C)C)C(=O)OC(C)C(=O)N(C)C(CC(C)C)C(=O)OC(C)C(=O)N(C)C(CC(C)C)C(=O)OC(C)C(=O)N1C [PF1022-002, cyclo-(L-MeLeu-D-Lac-)4]",Number of remaining worms (average value ± SD),[2],1976.5
same,% Effectiveness,[2],2.7%
"COc1ccc(C[C@H]2OC(=O)[C@H](CC(C)C)N(C)C(=O)[C@@H](C)OC(=O)[C@H](CC(C)C)N(C)C(=O)[C@@H](Cc3ccccc3)OC(=O)[C@H](CC(C)C)N(C)C(=O)[C@@H](C)OC(=O)[C@H](CC(C)C)N(C)C2=O)cc1 [PF1022-005, cyclo-(-L-MeLeu-D-Lac-L-MeLeu-D-PhLac-L-MeLeu-D-Lac-L-MeLeu-D-TYRA(OMe)]",% Elimination,fowl roundworms; single oral dose 0.5 mg/kg,73%
same,% Elimination,fowl roundworms; single oral dose 1.0 mg/kg,89%
same,% Elimination,fowl roundworms; single oral dose 2.0 mg/kg,100%
"CCOc1ccc(C[C@H]2OC(=O)[C@H](CC(C)C)N(C)C(=O)[C@@H](C)OC(=O)[C@H](CC(C)C)N(C)C(=O)[C@@H](Cc3ccccc3)OC(=O)[C@H](CC(C)C)N(C)C(=O)[C@@H](C)OC(=O)[C@H](CC(C)C)N(C)C2=O)cc1 [PF1022-016, cyclo-(L-MeLeu-D-PhLac-L-MeLeu-D-Lac-L-MeLeu-D-TYRA(OEt)-L-MeLeu-D-Lac)]",% Elimination,fowl roundworms; single oral dose 0.5 mg/kg,55%
same,% Elimination,fowl roundworms; single oral dose 1.0 mg/kg,61%
same,% Elimination,fowl roundworms; single oral dose 2.0 mg/kg,100%
"CCCCOc1ccc(C[C@H]2OC(=O)[C@H](CC(C)C)N(C)C(=O)[C@@H](C)OC(=O)[C@H](CC(C)C)N(C)C(=O)[C@@H](Cc3ccccc3)OC(=O)[C@H](CC(C)C)N(C)C(=O)[C@@H](C)OC(=O)[C@H](CC(C)C)N(C)C2=O)cc1 [PF1022-021, cyclo-(L-MeLeu-D-PhLac-L-MeLeu-D-Lac-L-MeLeu-D-TYRA(O-n-Bu)-L-MeLeu-D-Lac)]",% Elimination,fowl roundworms; single oral dose 1.0 mg/kg,41%
same,% Elimination,fowl roundworms; single oral dose 2.0 mg/kg,90%
"CC(C)CC1NC(=O)C(Cc2ccccc2)OC(=O)C(CC(C)C)N(C)C(=O)C(C)OC(=O)C(CC(C)C)NC(=O)C(Cc2ccccc2)OC(=O)C(CC(C)C)N(C)C(=O)C(C)OC1=O [PF1022-218, cyclo-(L-MeLeu-D-PhLac-L-Leu-D-Lac)2]",Number of remaining worms (average value ± SD),[2],2400 ± 362.0
same,% Effectiveness,[2],0%
"CC(C)CC1C(=O)OC(CC2CCCCC2)C(=O)N(C)C(CC(C)C)C(=O)OC(C)C(=O)N(C)C(CC(C)C)C(=O)OC(CC2CCCCC2)C(=O)N(C)C(CC(C)C)C(=O)OC(C)C(=O)N1C (stereo not shown) [PF1022-ADH, dodecahydro-PF1022]",% Elimination,fowl roundworms; single oral dose 5 mg/kg,30%
"CC(C)CC1C(=O)OC(CC2CCCCC2)C(=O)N(C)C(CC(C)C)C(=O)OC(C)C(=O)N(C)C(CC(C)C)C(=O)OC(Cc2ccccc2)C(=O)N(C)C(CC(C)C)C(=O)OC(C)C(=O)N1C (stereo not shown) [PF1022-AHH, hexahydro-PF1022]",% Elimination,fowl roundworms; single oral dose 5 mg/kg,62%
cyclo-(L-MeLeu-D-PhLac-L-MeLeu-D-Lac-L-MeLeu-D-TYRA(O-All)-L-MeLeu-D-Lac) [PF1022-020],% Elimination,fowl roundworms; single oral dose 1.0 mg/kg,54%
same,% Elimination,fowl roundworms; single oral dose 2.0 mg/kg,100%
cyclo-(L-MeLeu-D-PhLac-L-MeLeu-D-Lac-L-MeLeu-D-TYRA(OBn)-L-MeLeu-D-Lac) [PF1022-022],% Elimination,fowl roundworms; single oral dose 1.0 mg/kg,40%
same,% Elimination,fowl roundworms; single oral dose 2.0 mg/kg,93%
same,% Elimination,fowl roundworms; single oral dose 5 mg/kg,84%
cyclo-(L-MeLeu-D-VALA-L-MeLeu-D-Lac)2 [PF1022-209],Number of remaining worms (average value ± SD),[2],827 ± 388.9
same,% Effectiveness,[2]; 10 mg/kg,59.3%
same,% Effectiveness,"[2]; listed as PF 1022-209, 10 mg/kg",59.8%

# — patent publication US5747448A, “Derivatives of cyclodepsipeptide PF 1022” (Meiji Seika Kaisha, Ltd., priority 1993, dated 1998)
